Molecular target: T1, human TNFα trimer (Homo sapiens, UniProt P01375)
T1 construct: His6Smt-tag (N, cleaved yes); made in house; host or cells: E. coli (vector pEMB54)
Assay: RMSD of crystal structure of compound-bound TNFα trimer to Reference Structure Compound 34
Details: Cα atoms of β-sheet residues, all three subunits, PyMOL
Protocol: Cells were pre-cultured at 37° C. in rich media, induced with the addition of 0.1% arabinose and allowed to express overnight at 25° C. in vector pEMB54. This vector introduces a cleavable N-terminal His6Smt-tag. The cells were lysed and purified by Ni-NTA chelate chromatography. The fusion protein was eluted with buffer containing imidazole and cleaved by the addition of protease. The final cleaved TNFα protein was purified by a subtractive Ni chelate chromatography step to remove the fusion tag and further purified by size exclusion chromatography to remove the remaining impurities. The final TNFα product was typically concentrated to 20.0 mg/ml and flash frozen in liquid nitrogen.
Purified human TNF[…] (20.0 mg/ml, VC 2043) was diluted to 4-7 mg/ml in 10 mM HEPES pH 7.5, 150 mM NaCl buffer followed by overnight incubation at 4° C. with 0.3-0.5 mM compound (1-2 molar excess). The TNF[…] compound complexes were crystallized by sitting drop vapor diffusion by mixing 0.5 μl of complex with 0.5 μl of 21.44% PEG 3350, 100 mM Tris, pH 9.0 (UCB1474433); or 22.0% PEG 3350, 100 mM glycine, 100 mM Tris, pH 8.5 (UCB1480595); or 25.6% PEG 3350, 100 mM Tris, pH 8.3, 3% xylitol (UCB5143079) or other formulation with varying precipitant concentration or additives over 100 μl of the same crystallization solution. Other formulations for other compounds include a range of PEG 3350 of 8-28%. Other PEG-like additives include PEG 1000 (8-18%) or PEG 2000 (10-13%). Other additives include MPD (5-13%) or 200 mM NaCl. Other buffers include 100 mM Hepes (pH 7-8), 100 mM Tris or bis-Tris (pH 6.7-9.0). Other non-PEG 3350 crystallization solutions consist of PEG 2000 (14-19%), 100 mM Hepes, pH 8, 25 mM arginine; or 17% PEG 10000, 200 mM ammonium acetate, 100 mM bis-Tris, pH 5.5; or 30% PEG 2000 MME, 100 mM sodium acetate, 100 mM Mes, pH 6.5.
Crystals were briefly soaked in ethylene glycol and/or vitrified directly in liquid nitrogen for data collection.
X-ray diffraction data were collected from a synchrotron source at a wavelength, most frequently, of 0.976484 Å and recorded on CCD detector. […] The structure of the human TNF[…] (VC 2043) complexed with compound was solved by molecular replacement using Phaser with input model of 1TNF. […] Iterative manual model building using Coot (Emsley and Cowtan, 2004) and Refmac (Murshudov et al., 1997) continued until R and Rfree converged. […] The resolution of the structures was most frequently around 2.15 Å.
Root mean squared deviation (RMSD) calculations were carried out to ascertain the distance of each of the crystal structures of distorted TNFα trimer to a reference structure.
RMSD calculations were done using the program PyMOL (www.pymol.org). In this example version 1.7. was used. The cmd.rms PyMOL command was used with defined pairs of atoms. The atoms used were the backbone Ca's of certain residues within the β-strands of TNFα. The residue numbers used are shown below:
These residue numbers are those within the published structure of TNFα with PDB code 1A8M and within the distorted TNFα trimer structures of this invention. The residue numbers are also according to the sequence of SEQ ID NO:36. The residues in each of the three chains with the TNFα structures, (labelled A, B, and C according to our instructions) were used.
The command cmd.rms was used with the following arguments:
rms=cmd.rms(“(moving)”, “(target)”, matchmaker=4, quiet=0, cycles=0)
where “(moving)” is the selection of atoms in a given TNFα structure and “(target)” is the selection of equivalent atoms within the reference structure.
The RMSD was calculated for each structure against all others. The “representative structure” or “Reference Structure” was chosen to be the one with the lowest sum RMSD to all others—the structure “Compound 34” or “Compound34.pdb”.
Reference Structure (Compound 34) and Query Structure (Compound 64) were overlaid (see FIG. 17 with Reference Structure emboldened) by: • 1. […]

T1 sequence (P01375 with tags, fused parts or gaps): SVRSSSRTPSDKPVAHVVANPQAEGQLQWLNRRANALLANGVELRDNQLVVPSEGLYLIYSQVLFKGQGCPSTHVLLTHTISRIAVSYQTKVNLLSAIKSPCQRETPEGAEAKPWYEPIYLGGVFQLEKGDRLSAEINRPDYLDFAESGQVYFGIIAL

Point of comparison: `N#Cc1ccc2nc(Cc3csc(N4CCNC4=O)n3)n(Cc3ccccc3OC(F)F)c2c1` [Compound 31], “RMSD (Å) with Compound 34” value 0.24 Å. Against it:
- Cc1nc2ccc(-c3cnc(N4CCNC(=O)CC4)nc3)cn2c1C(C)c1ccccc1OC(F)F (stereo not drawn) [Compound 57] — higher, 0.30 Å
- Cc1ccc(C)c(Cn2c(COCc3ccncc3)nc3ccccc32)c1 [Compound 7] — higher, 0.25 Å
- Cc1ccc(C)c(Cn2c(Cc3ccncc3)nc3ccc(-c4ccncc4)cc32)c1 [Compound 18] — higher, 0.31 Å
- Cc1ccc(C)c(Nn2c(C(O)c3ccncc3)nc3ccccc32)c1 (stereo not drawn) [Compound 9] — higher, 0.28 Å
- COCc1nc2ccc(-c3ccc(N4CCN(C(C)=O)CC4)nc3)cc2n1Cc1ccccc1OC(F)F [Compound 33] — lower, 0.14 Å
- Cc1ccc(C)c(Cn2c(CO)nc3ccc(-c4ccc(N(C)C)nc4)cc32)c1 [Compound 14] — higher, 0.30 Å
- NC(=O)c1ccc(OCc2nc3ccc(-c4cc[n+]([O-])cc4)cc3n2Cc2cc(Cl)ccc2Cl)cc1 [Compound 21] — lower, 0.22 Å
- Cc1nc2ccc(-c3cnc(N4CCNC(=O)C4)nc3)cn2c1[C@@H](O)c1ccccc1OC(F)F [Compound 56] — the same, 0.24 Å
- FC(F)Oc1ccccc1C1CCc2nc3ccc(Br)cc3n21 (stereo not drawn) [Compound 52] — higher, 0.26 Å
- Cc1nc2ccc(-c3cnc(N4CCC(C(=O)O)CC4)nc3)cn2c1Cc1ccccc1OC(F)F [Compound 46] — higher, 0.27 Å
- Cc1nc2cc(F)c(-c3cnc(N4CC(O)(C(F)(F)F)C4)nc3)cn2c1[C@@H](O)c1ccccc1OC(F)F [Compound 64, 1-[5-[3-[(S)-[2-(difluoromethoxy)phenyl]-hydroxy-methyl]-7-fluoro-2-methyl-imidazo[1,2-a]pyridin-6-yl]pyrimidin-2-yl]-3-(trifluoromethyl)azetidin-3-ol] — lower, 0.22 Å
- Cc1ccc(C)c(Cn2c(C(O)c3ccncc3)nc3cc(-c4ccc(N5CCNCC5)cc4)ccc32)c1 (stereo not drawn) [Compound 11] — higher, 0.30 Å
- Cc1ccc(C)c(Cn2c(C(N)c3ccccc3)nc3ccccc32)c1 (stereo not drawn) [Compound 10] — higher, 0.25 Å
- N#Cc1ccc2nc(COc3cccc(N4CC(O)CC4=O)c3)n(Cc3ccccc3OC(F)F)c2c1 (stereo not drawn) [Compound 37] — lower, 0.22 Å
- COc1ccc(-c2ccc3nc4c(n3c2)C(c2ccccc2)OCC4)cn1 (stereo not drawn) [Compound 48] — higher, 0.30 Å
- CC(c1ccccc1)n1c(COc2cccc(N3CCCC3=O)c2)nc2ccc(C#N)cc21 (stereo not drawn) [Compound 42] — lower, 0.21 Å
- Cc1nc(Cn2c(COc3ccc(C(N)=O)cc3)nc3ccc(-c4ccncn4)cc32)cs1 [Compound 23] — the same, 0.24 Å
- COCCNc1ncc(-c2ccc3nc(C)n(Cc4ccccc4OC(F)F)c3c2)cn1 [Compound 44] — higher, 0.25 Å
- Cc1cc(OCc2nc3ccc(C#N)cc3n2C(C)c2ccccc2)no1 (stereo not drawn) [Compound 41] — lower, 0.20 Å
- N#Cc1ccc2nc(COc3cccc(N4CCC(O)C4=O)c3)n(Cc3ccccc3OC(F)F)c2c1 (stereo not drawn) [Compound 35] — lower, 0.16 Å
- CS(=O)(=O)c1cccc(OCc2nc3ccc(C#N)cc3n2Cc2cc(Cl)ccc2Cl)c1 [Compound 28] — higher, 0.29 Å
- Cc1ccc(C)c(Cn2c(COc3ccc4ccncc4c3)nc3ccccc32)c1 [Compound 16] — higher, 0.47 Å
- CS(=O)(=O)c1ccc(Cc2nc3ccc(-c4ccc(S(C)(=O)=O)cc4)cc3n2Cc2ccccc2OC(F)F)cc1 [Compound 62] — lower, 0.16 Å
- Cc1ccc(C)c(Cn2c(C(O)c3ccc(N(C)C)cc3)nc3ccccc32)c1 (stereo not drawn) [Compound 4] — lower, 0.21 Å
- CNC(=O)c1ccc(OCc2nc3ccc(-c4ccncc4)cc3n2Cc2cc(Cl)ccc2Cl)cc1 [Compound 20] — lower, 0.22 Å
- Cc1cc2nc(C)c(Cc3ccccc3OC(F)F)n2cc1-c1cnc(NCC2(C(=O)O)CC2)nc1 [Compound 54] — higher, 0.32 Å
- Cc1nc2ccc(-c3ccc(N4CCNCC4)nc3)cn2c1C(O)c1ccccc1OC(F)F (stereo not drawn) [Compound 47] — higher, 0.26 Å
- Cc1nc2ccc(-c3cnc(N4CCNC(=O)CC4C)nc3)cn2c1Cc1ccccc1OC(F)F (stereo not drawn) [Compound 55] — higher, 0.26 Å
- FC(F)Oc1ccccc1C1NCCc2nc3ccc(-c4cnc(N5CCOCC5)nc4)cn3c21 (stereo not drawn) [Compound 51] — higher, 0.34 Å
- Cc1nc2ccc(-c3ccc(N4CCNCC4)nc3)cc2n1Cc1ccccc1OC(F)F [Compound 32] — the same, 0.24 Å
- COC(=O)CCc1ccc2nc(C(O)c3ccncc3)n(Cc3cc(C)ccc3C)c2c1 (stereo not drawn) [Compound 13] — higher, 0.36 Å
- Cc1ccc(C)c(C2CCc3nc4ccc(Br)cc4n32)c1 (stereo not drawn) [Compound 49] — higher, 0.28 Å
- Cc1nc2ccc(-c3cnn(C)c3)cn2c1Cc1cc(Cl)ccc1Cl [Compound 24] — higher, 0.28 Å
- Cc1ccc(C)c(Cn2c(Cc3ccncc3)nc3ccc(-c4ccc(CN5CCCC5)cc4)cc32)c1 [Compound 19] — lower, 0.21 Å
- Cc1nc2cnc(-c3ccc(=O)[nH]c3)cn2c1Cc1cc(Cl)ccc1Cl [Compound 26] — higher, 0.38 Å
- Cc1ccc(C)c(Cn2c(C(O)c3ccncc3)nc3ccc(-c4cn[nH]c4)cc32)c1 (stereo not drawn) [Compound 12] — higher, 0.27 Å
- COc1ccc(-c2ccc3nc(Cc4ccc(S(C)(=O)=O)cc4)n(C(C)c4ccccc4)c3c2)cn1 (stereo not drawn) [Compound 45] — the same, 0.24 Å
- N#Cc1ccc2nc(COc3ccc(C(N)=O)nc3)n(Cc3ccccc3OC(F)F)c2c1 [Compound 27] — the same, 0.24 Å
- Cc1ccc(C)c(Cn2c(Cn3cc(-c4cccc(O)c4)nn3)nc3ccccc32)c1 [Compound 6] — lower, 0.21 Å
- N#Cc1ccc2nc(COc3cccc(N4CCCC4=O)c3)n(Cc3cc(Cl)ccc3Cl)c2c1 [Compound 29] — the same, 0.24 Å
- CS(=O)(=O)c1ccc(-c2ccc3nc4n(c3c2)C(c2ccccc2OC(F)F)CC4)cc1 (stereo not drawn) [Compound 61] — higher, 0.28 Å
- Cc1ccc(C)c(Cn2c(COCc3ccccc3[N+](=O)[O-])nc3ccccc32)c1 [Compound 17] — higher, 0.44 Å
- N#Cc1ccc2nc(Cc3ccc(NC(N)=O)cc3)n(Cc3ccccc3OC(F)F)c2c1 [Compound 30] — lower, 0.23 Å
- Clc1ccc(Cl)c(Cn2c(Cc3ccncc3)nc3ccccc32)c1 [Compound 8] — higher, 0.30 Å
- N#Cc1ccc2nc(COc3cccc(N4CC(O)CC4=O)c3)n(Cc3ccccc3OC(F)F)c2c1 (stereo not drawn) [Compound 36] — lower, 0.21 Å
- CC(c1ccccc1OC(F)F)n1c(COc2cccc(N3CCCC3=O)c2)nc2ccc(Br)cc21 (stereo not drawn) [Compound 50] — lower, 0.23 Å
- CC(c1ccccc1OC(F)F)n1c(COc2cccc(N3CCCC3=O)c2)nc2ccc(Br)cc21 (stereo not drawn) [Compound 53] — the same, 0.24 Å
- N#Cc1ccc2nc(Cn3nnc(N4CCOCC4)n3)n(Cc3ccccc3OC(F)F)c2c1 [Compound 40] — lower, 0.17 Å
- COCc1nc2ccc(-c3ccc(N4CCNC(=O)C4)nc3)cc2n1Cc1ccccc1OC(F)F [Compound 38] — lower, 0.17 Å
- COc1ccc(OCc2nc3ccc(Br)cc3n2Cc2nc(C)sc2Cl)cn1 [Compound 25] — higher, 0.34 Å

— patent publication US11674967B2, “Method of identifying potential inhibitors of APO TNFα trimers” (UCB BIOPHARMA SRL, priority 2015, dated 2023)
